Measurements: patent US8754206B2, “Metal (III) complex of biuret-amide based macrocyclic ligand as green oxidation catalyst” (Council of Scientific & Industrial Research, priority 2011, dated 2014)

Key:
[1] = Catalyzed bleaching of Orange II by H2O2; details: for k−1: from kinetic fitting; for k1 / k2: 0.01M Phosphate Buffer
Excerpt: In another embodiment, to study the efficacy of complex (IA) as H2O2 activating catalyst, its activity towards bleaching of the dye Orange II ([4-[(2-hydroxynaphthyl)azo]-benzene sulphonic acid], Na+ salt) is studied. […] The exponential kinetic curve, that holds for at least 6 half-lives (FIG. 8), indicates the fact that (IA) is oxidatively robust. Therefore, little or no degradation of the catalysts takes places during the course of the oxidation. This is because C—H bond of the —NMe group is situated very far away from the proposed Fe-oxo intermediate, thereby reducing the chances of ligand degradation by intramolecular C—H abstraction as has been proposed before for other Fe-TAML, complexes.
Using same Perkin-Elmer spectrophotometer Orange II bleaching kinetics were carried out in 0.01 M phosphate buffer at 485 nm, one of the absorption peaks of Orange II. pH was varied from 7 to 11. Strength of stock solutions of IB and Orange II were (2×10^−5 M) and (2−20×10^−4 M) respectively. Stock solution of hydrogen peroxide of 2×10^−2 M was made by measuring the optical density at 230 nm (ε=72.8 M^−1 cm^−1). Appropriate amount of stock solutions of Orange II, Fe^III-catalyst (IB) and H2O2 were added consecutively in the 1.00 cm quartz cell during experiments. Extinction coefficients for Orange II of 17,800, 23,000 and 19,400 M^−1 cm^−1 at pH 7, 9 and 11 respectively was used to calculate the initial rates of Orange II oxidation, Plot of concentration versus time was taken up to 10-20% of conversion of the dye compared to the total reaction.
b. Kinetics of IA and IB Catalyzed Bleaching of Orange II by H2O2 • Orange II dye has absorption maxima at 485 nm. Natural oxidant H2O2 slowly oxidizes Orange II but in presence of IA and IB huge catalysis was observed. The kinetic data followed the mechanism shown in Scheme 2. The initial rate of the dye bleaching reaction obeyed Michaelis-Menten type Equation (2) which was derived considering the steady state of oxidized [Fe^III(L2X)] species using mass balance equation [Fe^III]T=[Fe^III(L2X)]]+[Oxidized-[Fe^III L2X)]]. From kinetic fitting it was observed k.1˜0 for both IA and IB. […] In Table 3 all the kinetic parameters related to Orange II bleaching are given in details at 25° C. in 0.01 M Phosphate Buffer.

[2] = Cyclic voltammetry in acetonitrile; assay type: physicochemical
Excerpt: The σ-donor ability of (Et4N)2.[Fe^III(biuret-amide)] is studied using cyclic voltammetry. […] The peak observed for (IA) (E1/2 at −0.064 V) can most likely be assigned to a one electron oxidation for a Fe(III)/Fe(IV) couple while the other peak might be due to a ligand centered oxidation process (FIG. 6). On comparison with Fe-TAML complex (II) where a —CMe2 group is present instead of a —NMe group in the six membered ring of the complex, the Fe(III)/Fe(IV) couple for (IA) is found to be approximately 230 mV lower.
Infrared spectra were obtained on a Perkin-Elmer FT-IR spectrum GX instrument. LC-MS from Acquity Waters was used for ESI-MS analysis. EPR spectrum was recorded on a Bruker EMX X-band spectrometer operating at a field modulation of 100 kHz, modulation amplitude of 2. G and microwave radiation power of 2 mW. The solid Fe(III) complex was taken in a quartz tube and the spectrum was recorded at 298K. Cyclic voltammetry (CV) was done on an Autolab PGSTAT30 (Eco-Chemie) instrument in a conventional three-electrode test cell with platinum as the working electrode (WE), platinum wire as quasi reference electrode (RE) and a platinum foil as a counter electrode (CE). The measurements were carried out using a solution of 1 mM of (I) in dry acetonitrile with 0.1 M [n-Bu4N]PF6 as the supporting electrolyte. All reversible couples were confirmed by a linear dependence of peak current vs. the square root of the scan rate over the range of 20-200 mVs^−1.

[3] = Stability towards demetallation at different pH and phosphate buffer ionic strengths (UV-VIS); assay type: physicochemical; details: for demetalation in high concentration phosphate buffer: twenty four hour time scale, 350 nm
Experimental: In yet another embodiment, the stability of (IA) towards demetallation at different pH and ionic strengths is tested to evaluate the operational stability of the complex of instant invention for possible catalytic reactions in water. […] The stability of this complex is also monitored at different ionic strengths at pH 7. […] The phosphate buffer induced demetallation for similar Fe-TAML's have been studied in details. The proposed mechanism for phosphate buffer induced demetallation involves first the co-ordination of the O—PO(OH)2 into the Fe(III) center followed by the intramolecular attack of the H+ onto the amide N-donors. Complex (IA) has an extra —NMe group which is not bonded to the Fe(III) center. The lone pair on this N-atom resides predominantly in the p-orbital and can possibly be the first site for attack of the intramolecular H+ ion, thereby shielding complex (IA) from phosphate induced demetallation.
(§1) a. Kinetic Studies of Add Catalyzed Demetalation. • [Fe^III(biuret-amide)] catalyst are subject to H^+ catalyzed demetalation, following the Equation 1 according to Scheme 2 described above, kd=k1*[H^+]+k2*[H^+]^2+k3*[H^+]^3 where kd is the first order rate constant.

[4] = Catalyzed bleaching of Safranine O by H2O2 and intramolecular inactivation; details: pH 11.0, 25° C.
Excerpt: Safranine O oxidation kinetics was monitored at 525 nm and pH 11 in 0.01 M Phosphate Buffer. The strengths of stock solutions of Safranine O, [Fe^III(biuret-amide)](X═H, NO2) IA, IB complexes and hydrogen peroxide were respectively 2×10^−3 M, 5×10^−5 M and 0.2 M respectively. The extinction coefficient of 3.3×10^4 […] at 525 nm was used to get initial rate in terms of concentration unit (Ms^−1). To get the intramolecular inactivation rate (ki) absorbance change with time was monitored up to complete inactivation of the catalyst. Calculations of rate constants were performed by using Equation (4) and (5).
c. […] For safranine O bleaching, Equation (2) can be simplified to Equation (3) and k2 value can be calculated from the initial rate vs, [Safranine O] data as given in Table 4.
d. Intramolecular Inactivation (ki) Measurement for Safranine O Bleaching at pH 11.0 • The mono exponential intramolecular inactivation rate constant (ki) measurement of the oxidized form of the catalyst was done by the method followed by Collins group. The simplified differential rate law for dye bleaching is given by Equation (3) where Dt and x are total concentrations of the dye and concentration of the bleached dye at time t respectively. Integrating the Equation (3) under the boundary condition x=x∞ at t=t∞ results Equation (4). Equation (5) was derived by replacing the concentration terms by the absorbance term.
From the slope of the double logarithm of the ratio At/A∞ vs. time plot in Equation 6 gives the value of ki (FIG. 13, Table 4). The rate constant k2 is calculated from the intercept of the plot by putting the value of ki.

[5] = Acid (HClO4) catalyzed demetalation kinetics; assay type: physicochemical; details: for k1* (acid catalyzed demetalation): HClO4, 25.0 °C, 350 nm; for half-life at 0.173 mM: aqueous HClO4 solution, pH 1, read-out: t1/2 [pH 1] (converted)
Experimental: Acid induced demetalation kinetics was monitored in kinetic mode of the spectrophotometer (Perkin-Elmer—λ35) using 1.00 cm quartz cell in thermostatted cell housing. In the all kinetic runs IB was kept constant at 0.173 mM while acid concentration was varied from 0.04 to 3.0 M using HClO4. The pseudo first order rate constants (kd) were calculated from the initial rates at 350 nm (one of the absorption peaks of complex IB) and temperature was kept constant at 25.0±0.5° C. For each set, solution pH was measured with a pH meter (LABINDIA, PICO^+) with calibrated electrode.
as §1

Compound	k−1 [1]	k1 ([1]; pH 7.0, 25° C.)	k2 ([1]; pH 7.0, 25° C.)	k1 ([1]; pH 9.4, 25° C.)	k2 ([1]; pH 9.4, 25° C.)	k1 ([1]; pH 11.0, 25° C.)	k2 ([1]; pH 11.0, 25° C.)	demetalation in high concentration phosphate buffer [3]	ki × 10^4 (intramolecular inactivation) [4] [s^−1]	k2 × 10^−3, from Equation (5) [4] [M^−1s^−1]	k2 × 10^−3, from initial rates [4] [M^−1s^−1]	acid induced demetalation compared to compound II [5]	k1* (acid catalyzed demetalation) [5]	half-life at 0.173 mM [5] [h]	other results
CN1C(=O)[N]2C(C)(C)C(=O)[N]3c4ccccc4[N]4C(=O)C(C)(C)[N](C1=O)[Fe]342[Cl] [Catalyst 1A, Tetraethyl ammonium 3,3,6,9,9-pentamethyl-1,4,8,11-tetrahydro-1H-benzo[i][1,4,6,8,11]pentaazacyclotridecine-2,5,7,10(6H,11H)-tetraone ferrate]	~0	(2.0 ± 0.1) × 10^2 M^−1s^−1	(2.0 ± 0.1) × 10^4 M^−1s^−1	(2.8 ± 0.2) × 10^3 M^−1s^−1	(1.12 ± 0.10) × 10^5 M^−1s^−1	(3.4 ± 0.2) × 10^4 M^−1s^−1	(1.60 ± 0.10) × 10^5 M^−1s^−1	insignificant absorption change	3.7 ± 0.1	2.0 ± 0.1	2.4 ± 0.1	significantly less	(3.7 ± 0.5) × 10^−3 M^−1s^−1	0.4	catalytic activity compared with Fe-TAML ([1]; pH 7 and 9): much faster in oxidizing Orange II; bleaching of the dye Orange II by activation of H2O2 ([1]; pH 11): complete bleaching; pseudo first order rate constant kobs ([1]; pH 11): 0.021 ± 0.001 s⁻¹; Fe(III)/Fe(IV) couple lower than Fe-TAML complex (II) [2]: approximately 230 mV; formal reduction potential E1/2, reversible process (Fe(III)/Fe(IV) couple) ([2]; acetonitrile, 0.1 M [n-Bu4N]PF6, vs Fc+/Fc): −0.064 V; E1/2, quasi-reversible process ([2]; acetonitrile, 0.1 M [n-Bu4N]PF6, vs Fe+/Fc): −0.559 V; stability at low pH ([3]; in presence of HClO4): very good stability up to pH 2; half-life ([3]; pH 5, 0.1M phosphate buffer, 25° C.): ~18 h; complex degraded ([3]; pH 5, 0.1M phosphate buffer, 5 hours, 25° C.): 10%; stability at different ionic strengths ([3]; pH 7, phosphate concentration): remarkably stable up to 0.5 M phosphate concentrations
CN1C(=O)[N]2C(C)(C)C(=O)[N]3c4ccc([N+](=O)[O-])cc4[N]4C(=O)C(C)(C)[N](C1=O)[Fe]342[Cl] [Catalyst 1B, Tetraethyl ammonium 3,3,6,9,9-pentamethyl-13-nitro-1,4,8,11-tetrahydro-1H benzo[i][1,4,6,8,11]pentaazacyclotridecine-2,5,7,10(6H,11H)-tetraone ferrate]	~0	(1.24 ± 0.10) × 10^3 M^−1s^−1	(4.1 ± 0.5) × 10^5 M^−1s^−1	(2.36 ± 0.6) × 10^3 M^−1s^−1	(4.2 ± 0.4) × 10^5 M^−1s^−1	(2.4 ± 0.2) × 10^4 M^−1s^−1	(4.9 ± 0.5) × 10^5 M^−1s^−1	insignificant absorption change	3.0 ± 0.2	3.8 ± 0.3	3.9 ± 0.1	significantly less	(1.41 ± 0.09) × 10^−3 M^−1s^−1	1.33	
